Biological target: T1, FimH-CRD (Escherichia coli, UniProt P08191)
T1 construct: The first 177 amino acids of the FimH protein; thrombin tag (printed as 'fusion protein with thrombin') (cleaved yes); made in house; host or cells: bacteria (pET21b plasmid)
Assay: Competitive binding assay by fluorescence polarization, assay 2 (compounds prepared by robotics, plates frozen and thawed)
Method: The first 177 amino acids of the FimH protein were expressed as a fusion protein with thrombin in a pET21b plasmid in bacteria. This FimH protein sequence contains the carbohydrate recognition domain (CRD) and shall be termed FimH-CRD. Following bacterial expression of the protein, the FimH-CRD protein was purified to homogeneity and the thrombin tag removed by protease cleavage. A competitive binding assay by fluorescence polarization was performed using 5 nM of the Alexa 647 mannoside probe and 60 nM of the FimH-CRD. The samples are assayed in a low volume 384 well microtiter plate in a final volume of 20 μl. The final assay buffer conditions are the following, 50 mM Tris-Cl, ph 7.0, 100 mM NaCl, 1 mM EDTA, 5 mM β-mercaptoethanol, 0.05% BSA and 2.5% DMSO. Two assays are performed for FimH, termed assay 1 or assay 2. The assay conditions are the same for both assays except the following: assay 1 has compounds prepared by manual dilution in a serial dilution factor with 12-point dose response while assay 2 has compounds prepared by a robotics system also through a serial dilution factor (12 point dose response) and initially prepared in duplicate in 384 well-Corning polypropylene round bottom plates. The assay 2 plates have compound which is then frozen and must be thawed prior to use. Initially the Alexa 647 probe and the FimH-CRD are added to the assay buffer and then 0.5 μl of test compound (assay 1 or 2) between 0.4 nM to 75 μM final concentration are added (12 point titration with 3-fold serial dilution). Control wells for the Alexa 647 probe are prepared with the same conditions except for the addition of the FimH-CRD protein. Plates are then incubated for 5 hrs at room temperature in the dark and under humid conditions to prevent drying. Plates are read using the SpectraMax Paradigm multi-mode plate reader and the appropriate fluorescent polarization detection cartridge (Alexa-647).
Alexa 647 mannoside probe is prepared using the similar procedure reported for FAM mannoside (Han, Z. et. al., 2010, J. Med. Chem., 53, 4779) and is described in the scheme below.
To a blue colored stirred solution of (2S,3S,4S,5S,6R)-2-(4-aminobutoxy)-6-(hydroxymethyl)tetrahydropyran-3,4,5-triol (2.21 mg, 0.009 mmol) and the (2E)-2-[(2E,4E)-5-[3,3-dimethyl-5-sulfonato-1-(3-sulfonatopropyl)indol-1-ium-2-yl]penta-2,4-dienylidene]-3-[6-(2,5-dioxopyrrolidin-1-yl)oxy-6-oxo-hexyl]-3-methyl-1-(3-sulfonatopropyl)indoline-5-sulfonate (Potassium Ion (3)) (4.9 mg, 0.0044 mmol) in DMF (44 μL) is added Et3N (5.4 mg, 7.0 μL, 0.053 mmol) at RT. The solution is stirred at room temperature over night, concentrated, dissolved in water and purified on 12 g C-18 silica gel cartridge on Isolera system using acetonitrile in water (0 to 40%, 10 CV) and followed by lyophilization to afford Alexa 647 mannoside probe (3.3 mg, 34%) as deep blue solid.
The Kd values of the compounds are determined from dose response curves using twelve concentrations per compound in duplicate. Curves are fitted to data points using Fluorescence Polarization competitive displacement analysis, and Kds are interpolated from the resulting curves using GraphPad Prism software, version […] (GraphPad software Inc., San Diego, Calif., USA).

T1 sequence (P08191 22-177): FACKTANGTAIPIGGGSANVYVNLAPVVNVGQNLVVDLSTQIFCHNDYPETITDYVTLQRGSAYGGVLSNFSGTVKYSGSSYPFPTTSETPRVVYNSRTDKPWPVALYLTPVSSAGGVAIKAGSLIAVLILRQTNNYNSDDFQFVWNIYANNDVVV

SMILES | Kd [nM]
COc1cc(-c2nnc(C)o2)ccc1-c1cccc([C@H]2O[C@H](CO)[C@@H](O)[C@H](O)[C@@H]2O)c1 [Compound 128, (2R,3S,4R,5S,6R)-2-(hydroxymethyl)-6-[3-[2-methoxy-4-(5-methyl-1,3,4-oxadiazol-2-yl)phenyl]phenyl]tetrahydropyran-3,4,5-triol] | 74.7 ± 60.4
Cc1nnc(-c2ccc(-c3ccc([C@H]4O[C@H](CO)[C@@H](O)[C@H](O)[C@@H]4O)cc3)cc2)o1 [Compound 129, (2R,3S,4R,5S,6R)-2-(hydroxymethyl)-6-[4-[4-(5-methyl-1,3,4-oxadiazol-2-yl)phenyl]phenyl]tetrahydropyran-3,4,5-triol] | 22.9 ± 5.4
CNC(=O)c1cc(/C=C\c2cccc([C@H]3O[C@H](CO)[C@@H](O)[C@H](O)[C@@H]3O)c2)cc(C(=O)NC)c1 [Compound 135] | 22.3 ± 9.8
CNC(=O)c1cc(/C=C/c2cccc([C@H]3O[C@H](CO)[C@@H](O)[C@H](O)[C@@H]3O)c2)cc(C(=O)NC)c1 [Compound 136] | 19.2 ± 3.6
OC[C@H]1O[C@H](c2cccc(/C=C\c3cc(Cl)cc(Cl)c3)c2)[C@@H](O)[C@@H](O)[C@@H]1O [Compound 137, (2R,3S,4R,5S,6R)-2-[3-[(Z)-2-(3,5-dichlorophenyl)vinyl]phenyl]-6-(hydroxymethyl)tetrahydropyran-3,4,5-triol] | 29.9 ± 15.2
OC[C@H]1O[C@H](c2cccc(/C=C/c3cc(Cl)cc(Cl)c3)c2)[C@@H](O)[C@@H](O)[C@@H]1O [Compound 138, (2R,3S,4R,5S,6R)-2-[3-[(E)-2-(3,5-dichlorophenyl)vinyl]phenyl]-6-(hydroxymethyl)tetrahydropyran-3,4,5-triol] | 32.9 ± 6.3
OC[C@H]1O[C@H](c2cccc(/C=C/c3ccccc3)c2)[C@@H](O)[C@@H](O)[C@@H]1O [Compound 140, (2R,3S,4R,5S,6R)-2-(hydroxymethyl)-6-[3-[(E)-styryl]phenyl]tetrahydropyran-3,4,5-triol] | 15.3 ± 3.5
CNC(=O)c1ccc(-c2cccc([C@H]3O[C@H](CO)[C@@H](O)[C@H](O)[C@@H]3O)c2)cc1-n1cncn1 [Compound 141, N-methyl-2-(1,2,4-triazol-1-yl)-4-[3-[(2R,3S,4R,5S,6R)-3,4,5-trihydroxy-6-(hydroxymethyl)tetrahydropyran-2-yl]phenyl]benzamide] | 56.2 ± 20
COCc1cc(-c2cccc([C@H]3O[C@H](CO)[C@@H](O)[C@H](O)[C@@H]3O)c2)ccc1-c1nnc(C)o1 [Compound 142, (2R,3S,4R,5S,6R)-2-(hydroxymethyl)-6-[3-[3-(methoxymethyl)-4-(5-methyl-1,3,4-oxadiazol-2-yl)phenyl]phenyl]tetrahydropyran-3,4,5-triol] | 14.8 ± 5.9
Cc1nnc(-c2ccc(-c3cccc([C@H]4O[C@H](CO)[C@@H](O)[C@H](O)[C@@H]4O)c3)cc2O)o1 [Compound 143, (2R,3S,4R,5S,6R)-2-(hydroxymethyl)-6-[3-[3-hydroxy-4-(5-methyl-1,3,4-oxadiazol-2-yl)phenyl]phenyl]tetrahydropyran-3,4,5-triol] | 11.2 ± 1
COC(=O)c1ccc2nc(-c3cccc([C@H]4O[C@H](CO)[C@@H](O)[C@H](O)[C@@H]4O)c3)ccc2c1 [Compound 144, Methyl 2-[3-[(2R,3S,4R,5S,6R)-3,4,5-trihydroxy-6-(hydroxymethyl)tetrahydropyran-2-yl]phenyl]quinoline-6-carboxylate] | 18.3 ± 7.5
CNC(=O)c1ccc2nc(-c3cccc([C@H]4O[C@H](CO)[C@@H](O)[C@H](O)[C@@H]4O)c3)ccc2c1 [Compound 145, N-Methyl 2-[3-[(2R,3S,4R,5S,6R)-3,4,5-trihydroxy-6-(hydroxymethyl)tetrahydropyran-2-yl]phenyl]quinoline-6-carboxylate] | 22.4 ± 4.7
OCc1nc2cc(-c3cccc([C@H]4O[C@H](CO)[C@@H](O)[C@H](O)[C@@H]4O)c3)ccc2[nH]1 [Compound 146, (2R,3S,4R,5S,6R)-2-(Hydroxymethyl)-6-[3-[2-(hydroxymethyl)-1H-benzimidazol-5-yl]phenyl]tetrahydropyran-3,4,5-triol] | 27.8 ± 10.8
OC[C@H]1O[C@H](c2cccc(-c3ccc4[nH]c(O)nc4c3)c2)[C@@H](O)[C@@H](O)[C@@H]1O [Compound 147, (2R,3S,4R,5S,6R)-2-[3-(2-Hydroxy-1H-benzimidazol-5-yl)phenyl]-6-(hydroxymethyl)tetrahydropyran-3,4,5-triol] | 10.9 ± 4
OC[C@H]1O[C@H](c2cccc(-c3ccc4[nH]c(C(F)(F)F)nc4c3)c2)[C@@H](O)[C@@H](O)[C@@H]1O [Compound 148, (2R,3S,4R,5S,6R)-2-(Hydroxymethyl)-6-[3-[2-(trifluoromethyl)-1H-benzimidazol-5-yl]phenyl]tetrahydropyran-3,4,5-triol] | 25.1 ± 12
CCCCn1cnc2ccc(-c3cccc([C@H]4O[C@H](CO)[C@@H](O)[C@H](O)[C@@H]4O)c3)cc21 [Compound 149, (2R,3S,4R,5S,6R)-2-[3-(3-Butylbenzimidazol-5-yl)phenyl]-6-(hydroxymethyl)tetrahydropyran-3,4,5-triol] | 19.8 ± 11.2
Cc1nnc(-c2ccc(-c3cccc([C@H]4O[C@H](CO)[C@@H](O)[C@H](O)[C@@H]4O)c3)cc2F)o1 [Compound 150, (2R,3S,4R,5S,6R)-2-[3-[3-Fluoro-4-(5-methyl-1,3,4-oxadiazol-2-yl)phenyl]phenyl]-6-(hydroxymethyl)tetrahydropyran-3,4,5-triol] | 25.9 ± 5.1
COC(=O)c1nc2cc(-c3cccc([C@H]4O[C@H](CO)[C@@H](O)[C@H](O)[C@@H]4O)c3)ccc2[nH]1 [Compound 151, Methyl 5-[3-[(2R,3S,4R,5S,6R)-3,4,5-trihydroxy-6-(hydroxymethyl)tetrahydropyran-2-yl]phenyl]-1H-benzimidazole-2-carboxylate] | 37.8 ± 13.4
CNC(=O)Cn1cnc2cc(-c3cccc([C@H]4O[C@H](CO)[C@@H](O)[C@H](O)[C@@H]4O)c3)ccc21 [Compound 152, N-Methyl-2-[5-[3-[(2R,3S,4R,5S,6R)-3,4,5-trihydroxy-6-(hydroxymethyl)tetrahydropyran-2-yl]phenyl]benzimidazol-1-yl]acetamide] | 43.8 ± 1.1
O=C(O)c1cc(C(=O)O)cc(-c2cccc([C@H]3O[C@H](CO)[C@@H](O)[C@H](O)[C@@H]3O)c2)c1 [Compound 153, 5-[3-[(2R,3S,4R,5S,6R)-3,4,5-trihydroxy-6-(hydroxymethyl)tetrahydropyran-2-yl]phenyl]benzene-1,3-dicarboxylic acid] | 88.7 ± 41.2
CNC(=O)c1cccc(-c2ccc3cc([C@H]4O[C@H](CO)[C@@H](O)[C@H](O)[C@@H]4O)ccc3c2)c1 [Compound 154, N-methyl-3-[6-[(2R,3S,4R,5S,6R)-3,4,5-trihydroxy-6-(hydroxymethyl)tetrahydropyran-2-yl]-2-naphthyl]benzamide] | 18.4 ± 6.9
OC[C@H]1O[C@H](c2ccc3cc(-c4cc(Cl)cc(Cl)c4)ccc3c2)[C@@H](O)[C@@H](O)[C@@H]1O [Compound 155, (2R,3S,4R,5S,6R)-2-[6-(3,5-dichlorophenyl)-2-naphthyl]-6-(hydroxymethyl)tetrahydropyran-3,4,5-triol] | 71.7 ± 2
OC[C@H]1O[C@H](c2ccc3cc(O)ccc3c2)[C@@H](O)[C@@H](O)[C@@H]1O [Compound 156, (2R,3S,4R,5S,6R)-2-(hydroxymethyl)-6-(6-hydroxy-2-naphthyl)tetrahydropyran-3,4,5-triol] | 16.5 ± 4.3

From patent US20130261077A1 (priority 2012, published 2013)
